In patent US8530465B2, “1, 2-disubstituted amido-anthraquinone derivatives, preparation method and application thereof” (National Defense Medical Center, priority 2010, dated 2013):

Columns and labels:
[1] = MTT assay, PhTERT-SEAP (H1299); format: cell-based, human; settings: human, H1299 cells carrying the PhTERT-SEAP reporter, PhTERT-SEAP (H1299); for viability at 1 μM: Conc. 1 μM, read-out: Relative MTT viability (%); for viability at 10 μM: Conc. 10 μM
Method: (§1) Further, cells were subjected to MTT assay to compare the relative toxicity or effect of each compound on cell proliferation and activity.
(§2) The above-described cells are cultured in a 96-well plate, to which was added with 25 μl MTT solution, and cultured in a 37° C. carbon dioxide incubator for 4 hours. Then, 100 μl Lysis buffer is added and incubated in a 37° C. carbon dioxide incubator overnight. An ELISA reader (Bio-Rad Model 450) is used to read optical density (O.D.) at 550 nm.

H1299 = assay: MTT assay, PhTERT-SEAP (H1299); format: cell-based, human; settings: H1299; for cell toxicity activity: low concentration (1 μM)
Method: as §1, §2

hTERT = assay: Secreted alkaline phosphatase (SEAP) assay, PhTERT-SEAP (H1299); format: cell-based; settings: Homo sapiens, 24 hours; for activity at 1 µM: NCI-H1299, Conc. 1 μM, read-out: Relative SEAP activity (%); for activity at 10 µM: NCI-H1299, Conc. 10 μM; for activity at 10 µM / activity at 100 µM: read-out: Relative SEAP activity (%) (converted); for activity at 100 µM: NCI-H1299, Conc. 100 μM
Method: H1299 were grown in RPMI 1640 media supplemented with 10% fetal bovine serum, 100 units/mL penicillin and […] streptomycin in a humidified atmosphere with 5% CO2 at 37° C. Culture media were changed every three days. To establish stable cell lines that the expression of hTERT could be monitored by a reporter system, a about 3.3 kbp DNA fragment ranging from −3338 to +1 bp of the hTERT gene (hTERT promoter, PhTERT) was subcloned upstream to a secreted alkaline phosphatase gene (SEAP) and transfected into H1299 by electroporation. The stable clones were selected using G418. The stable clones derived from H1299 were cultured using conditions that are similar to their parental cells.
Secreted alkaline phosphatase was used as the reporter system to monitor the transcriptional activity of hTERT. Here, about 10^4 cells each were grown in 96-well plates and incubated at 37° C. for 24 hours and changed with fresh media. Varying amounts of drugs were added and cells were incubated for another 24 hours. Culture media were collected and heated at 65° C. for 10 min to inactivate heat-labile phosphatases. An equal amount of SEAP buffer (2 M diethanolamine, 1 mM MgCl2, and 20 mM L-homoarginine) was added to the media and p-nitrophenyl phosphate was added to a final concentration of 12 mM. Absorptions at 405 nm were taken, and the rate of absorption increase is determined (the increasing rate of absorbance at 405 nm was used to represent the activity of SEAP).

[2] = read-out: Relative MTT viability (%) (converted)

Compound | melting point [°C] | viability at 1 μM [1] [%] | cell toxicity / inhibitory activity compared with mitoxantrone and doxorubicin (H1299; SEAP and MTT analysis) | activity at 1 µM (hTERT) [%] | activity at 10 µM (hTERT) [%] | activity at 100 µM (hTERT) [%] | viability at 10 μM [1, 2] [%] | cell toxicity activity (H1299) | viability at 100 μM ([1]; Conc. 100 μM, read-out: Relative MTT viability (%) (converted)) | cell toxicity (H1299; 1 μM, 10 μM, and 100 μM) | inhibitory activity among compounds CC-35 to CC-50 (H1299; SEAP and MTT analysis)
O=C(CCl)Nc1ccc2c(c1NC(=O)CCl)C(=O)c1ccccc1C2=O [CC-01, 1,2-bis-(chloroacetamido)-anthraquinone] | 254 to 255 | 8.1 ± 3.87 | higher cell toxicity activity than mitoxantrone and doxorubicin | 15.9 ± 1.06 | 13.7 | 13.7 |  |  |  |  | 
CC(Cl)C(=O)Nc1c(NC(=O)CCl)ccc2c1C(=O)c1ccccc1C2=O (stereo not shown) [CC-06, 1-[(2-chloropropanyl)amido]-2-(chloroacetamido)-anthraquinone] | 175 to 176 | 9.01 ± 1.66 | higher cell toxicity activity than mitoxantrone and doxorubicin | 12.1 ± 0.44 | 1.04 | 2.38 |  |  |  |  | 
O=C(CCl)Nc1ccc2c(c1NC(=O)c1cccc(F)c1)C(=O)c1ccccc1C2=O [CC-14, 1-(3-fluorobenzamido)-2-(chloroacetamido)-anthraquinone] | 197 to 198 | 18.3 ± 13.5 | inhibitory activity even better than mitoxantrone and doxorubicin | 26.9 ± 11.6 | 1.77 | 0.97 | 8.06 | very strong cell toxicity activity |  |  | 
O=C(CCl)Nc1ccc2c(c1NC(=O)c1ccc(F)cc1)C(=O)c1ccccc1C2=O [CC-15, 1-(4-fluorobenzamido)-2-(chloroacetamido)-anthraquinone] | 184 to 185 | 10.9 ± 2.92 | inhibitory activity even better than mitoxantrone and doxorubicin | 11.9 ± 9.77 | 2.58 | 0.52 | 4.2 | very strong cell toxicity activity |  |  | 
O=C(CN1CCN(c2ccccc2)CC1)Nc1ccc2c(c1NC(=O)c1ccccc1)C(=O)c1ccccc1C2=O [CC-33, 1-(benzamido)-2-[2-(4-phenylpiperazino)acetylamino]-anthraquinone] | 225 to 226 | 86.3 ± 2.6 |  | 85.9 ± 8.01 | 97.9 ± 4.82 | 89.6 ± 3.37 | 110 ± 8.53 |  | 88 ± 6.32 | no significant cell toxicity | 
Cc1ccc(C(=O)Nc2c(NC(=O)CN3CCN(CCO)CC3)ccc3c2C(=O)c2ccccc2C3=O)cc1 [CC-44, 1-(4-methylbenzamido)-2-[2-(4-(2-hydroxyethyl)piperazino]acetylamino]-anthraquinone] | 210 to 211 | 71.5 ± 5.12 |  | 77 ± 9.13 | 8.09 | -1.24 | 44.8 |  |  |  | higher inhibitory activity
